# In US5155127A, “N-(substituted aryl)-N'-(substituted alkoxy)-ureas and thioureas as antihypercholesterolemic and antiatherosclerotic agents” (priority 1990, dated 1992):
# Target: T1, acyl-CoA:cholesterol acyltransferase (ACAT) (Oryctolagus cuniculus, UniProt G1SFD9)
# T1 construct: tissue preparation containing rabbit intestinal microsomes; from tissue; host or cells: rabbit intestinal microsomes
# T1 sequence (G1SFD9 1-524): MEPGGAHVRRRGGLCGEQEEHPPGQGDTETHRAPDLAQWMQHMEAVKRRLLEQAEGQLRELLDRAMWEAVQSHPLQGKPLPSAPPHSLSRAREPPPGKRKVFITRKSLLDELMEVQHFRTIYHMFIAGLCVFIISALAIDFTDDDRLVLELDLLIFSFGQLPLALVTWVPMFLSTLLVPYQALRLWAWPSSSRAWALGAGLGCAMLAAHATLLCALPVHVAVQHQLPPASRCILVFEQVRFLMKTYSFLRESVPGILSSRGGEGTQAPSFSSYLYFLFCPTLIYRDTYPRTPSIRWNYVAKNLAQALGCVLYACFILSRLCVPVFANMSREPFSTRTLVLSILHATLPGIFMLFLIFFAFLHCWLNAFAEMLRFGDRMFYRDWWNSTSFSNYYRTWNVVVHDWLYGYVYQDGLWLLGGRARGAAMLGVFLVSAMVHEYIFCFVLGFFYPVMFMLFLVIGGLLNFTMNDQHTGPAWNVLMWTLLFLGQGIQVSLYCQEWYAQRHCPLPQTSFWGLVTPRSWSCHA
# Experiment: in vitro ACAT inhibition: radio-labeled cholesterol oleate formation from radio-labeled oleic acid in rabbit intestinal microsomes
# Format: biochemical
# Details: read-out: IC50 (concentration of test compound required to inhibit cholesteryl oleate formation to 50% of control)
# Procedure: The ability of representative compounds of the present invention to inhibit ACAT was measured using an in vitro test more fully described in Field, F. J. and Salome, R. G., Biochimica et Biophysica Acta, volume 712, pages 557-570 (1982). The test assesses the ability of a test compound to inhibit the acylation of cholesterol by oleic acid by measuring the amount of radio-labeled cholesterol oleate formed from radio-labeled oleic acid in a tissue preparation containing rabbit intestinal microsomes. The data in Table I is expressed as IC50 values, i.e., the concentration of test compound required to inhibit cholesteryl oleate formation to 50% of control.
row,IC50 [nM],SMILES
1,30,"CC(C)c1cccc(C(C)C)c1NC(=O)NOC(c1ccccc1)c1ccccc1 [Example 1, N-[2,6-Bis(1-methylethyl)phenyl]-N'-(diphenylmethoxy)-urea]"
2,53,"CC(C)c1cccc(C(C)C)c1NC(=O)NOC(c1ccccc1)(c1ccccc1)c1ccccc1 [Example 2, N-[2,6-Bis(1-methylethyl)phenyl]-N'-(triphenylmethoxy)urea]"
3,92,"CC(C)c1cccc(C(C)C)c1NC(=O)NOCc1cccc2ccccc12 [Example 3, N-[2,6-Bis(1-methylethyl)phenyl]-N'-(1-naphthalenylmethoxy)-urea]"
